According to PubChem BioAssay AID652057 (Broad Institute, 2013):
“And” between values parts separate entries of the source, which are not always exact repeats. Equal entries are not always repeated.

Test system: HeLa-JRFL Env/CEM21 cell fusion, luciferase
Assay: inhibitors of HIV Env-driven cell fusion, dose response, cherry-pick (AID 652057)

Row | Compound | AC50
1 | C[C@H](CO)N1C[C@H](C)[C@H](CN(C)S(=O)(=O)c2ccccc2)Oc2ncc(/C=C/c3ccccc3)cc2C1=O | 9.21 µM and 1.6 µM
2 | O=C(C[C@H]1C[C@H]2c3cc(NC(=O)c4ccc5c(c4)OCO5)ccc3O[C@H]2[C@H](CO)O1)NCc1ccc(Oc2ccccc2)cc1 | 35.1 µM
